The values that follow come from paper PMC6100729, “Penicillium citrinum UFV1 β-glucosidases: purification, characterization, and application for biomass saccharification” (Biotechnology for Biofuels, 2018).

Format in all cases: biochemical, Penicillium citrinum
Assay [1] concerns T1, PcβGlu2.
T1 construct: 93 kDa SDS-PAGE, 89 kDa gel filtration (abstract 95 kDa), monomer; GH3 only tentative (MS on heterogeneous fraction)
The assay is described as follows: glucose release, glucose oxidase method at […] nm. As to conditions: 50 mM sodium acetate pH 5.0, 40 °C.

Assay [2] has as its system T2, PcβGlu1.
T2 construct: native secreted enzyme purified from wheat-bran culture supernatant (ammonium sulfate, phenyl sepharose); 134 kDa SDS-PAGE, 258 kDa gel filtration (abstract 241 kDa), homodimer
The assay is described as follows: glucose release, glucose oxidase method at […] nm. As to conditions: 50 mM sodium acetate pH 5.0, 40 °C.

The test system of assay [3] is T2, PcβGlu1. The assay is described as follows: 4-methylumbelliferone fluorescence. Conditions: 50 mM sodium acetate pH 5.0, 40 °C. The text has this:
4-methylumbelliferone fluorescence on PcβGlu1

The test system of assay [4] is T1, PcβGlu2. Put plainly: 4-methylumbelliferone fluorescence. Conditions: 50 mM sodium acetate pH 5.0, 40 °C; substrate-inhibition model. The source says: 4-methylumbelliferone fluorescence on PcβGlu2
The target of assay [5] is T2, PcβGlu1. The assay is described as follows: pNPβGlu hydrolysis, p-nitrophenol release at […] nm. Conditions: substrate pNPβGlu, 50 mM sodium acetate pH 5.0, 40 °C.
Assay [6] concerns the target T1, PcβGlu2. The assay is described as follows: pNPβGlu hydrolysis, p-nitrophenol release at […] nm. Conditions: substrate pNPβGlu, 50 mM sodium acetate pH 5.0, 40 °C.
The subject of assay [7] is T2, PcβGlu1. Put plainly: p-nitrophenol release at […] nm. As to conditions: 50 mM sodium acetate pH 5.0, 40 °C.
For assay [8], the system named is T1, PcβGlu2. Put plainly: p-nitrophenol release at […] nm. As to conditions: 50 mM sodium acetate pH 5.0, 40 °C; substrate-inhibition model.
Where [9] appears, read: mixed-type noncompetitive, free-enzyme constant, read-out: KIE.

Where two headings read alike, the source gives them in different places.

As a reminder, the Km is the concentration of substrate that gives half-maximal velocity. Regarding `OC[C@H]1O[C@@H](O[C@H]2[C@H](O)[C@@H](O)[C@H](O[C@H]3[C@H](O)[C@@H](O)[C@H](O[C@H]4[C@H](O)[C@@H](O)[C@H](O[C@H]5[C@H](O)[C@@H](O)C(O)O[C@@H]5CO)O[C@@H]4CO)O[C@@H]3CO)O[C@@H]2CO)[C@H](O)[C@@H](O)[C@@H]1O` (some centres unmarked) [Cellopentaose], the Km with PcβGlu2 [1] (substrate-inhibition model) was found to be 70 ± 10 µM; in the assay with PcβGlu1 [2], 250 ± 20 µM.

For the compound `OC[C@H]1O[C@@H](O[C@H]2[C@H](O)[C@@H](O)[C@H](O[C@H]3[C@H](O)[C@@H](O)[C@H](O[C@H]4[C@H](O)[C@@H](O)C(O)O[C@@H]4CO)O[C@@H]3CO)O[C@@H]2CO)[C@H](O)[C@@H](O)[C@@H]1O` (some centres unmarked) [Cellotetraose], the Km in the assay with PcβGlu2 [1] (substrate-inhibition model) was 280 ± 70 µM; in the assay with PcβGlu1 [2], 420 ± 50 µM.

Take `OC[C@H]1O[C@@H](OC[C@H]2OC(O)[C@H](O)[C@@H](O)[C@@H]2O)[C@H](O)[C@@H](O)[C@@H]1O` (some centres unmarked) [Gentiobiose]: the Km with PcβGlu2 [1] (Michaelis-Menten) is 620 ± 70 µM; with PcβGlu1 [2] it was 380 ± 40 µM.

As to `OC[C@H]1O[C@@H](O[C@H]2[C@H](O)[C@@H](CO)OC(O)[C@@H]2O)[C@H](O)[C@@H](O)[C@@H]1O` (some centres unmarked) [Laminaribiose], the Michaelis-Menten constant (Km) with PcβGlu2 [1] (substrate-inhibition model) stood at 420 ± 30 µM; in the assay on PcβGlu1 [2], 330 ± 40 µM.

Take `Cc1cc(=O)oc2cc(O[C@@H]3O[C@H](CO)[C@@H](O)[C@H](O)[C@H]3O)ccc12` [MUβGlu]: the Michaelis-Menten constant (Km) is 240 ± 10 µM in the assay on PcβGlu1 [3] and 14 ± 2 µM with PcβGlu2 [4].

Regarding `CCCCCCCCO[C@@H]1O[C@H](CO)[C@@H](O)[C@H](O)[C@H]1O` [Octyl-β-glucopyranoside], the values for the Michaelis constant (Km) in the assay with PcβGlu2 [1] (substrate-inhibition model) and in the assay with PcβGlu1 [2] were 190 ± 30 µM and 540 ± 30 µM, respectively.

Take `OC[C@H]1O[C@@H](O[C@H]2[C@H](O)[C@@H](O)C(O)O[C@@H]2CO)[C@H](O)[C@@H](O)[C@@H]1O` (some centres unmarked) [cellobiose]: the Michaelis-Menten constant (Km) in the assay on PcβGlu2 [1] (Michaelis-Menten) was 640 ± 60 µM; in the assay with PcβGlu1 [2], 1700 ± 100 µM. Also, the Ki on PcβGlu1 [5] (setting [9]) came out at 10700 ± 100 µM; on PcβGlu2 [6] (setting [9]) it was 3740 ± 70 µM.

In the case of `OC[C@H]1OC(O)[C@H](O)[C@@H](O)[C@@H]1O` (some centres unmarked) [glucose], the Ki was determined as 1890 ± 80 µM on PcβGlu1 [5] (competitive, read-out: Ki) and 880 ± 80 µM at PcβGlu2 [6] (competitive, read-out: Ki).

`O=[N+]([O-])c1ccc(O[C@@H]2O[C@H](CO)[C@@H](O)[C@H](O)[C@H]2O)cc1` [pNPβGlu]: the Km stood at 280 ± 10 µM in the assay with PcβGlu1 [7] and 72 ± 7 µM with PcβGlu2 [8].
